For experiment [1], the system named is DU145. Briefly: WST-1 proliferation assay, DU145 cells (Example 17). It counts as cell-based, human. Here is the method: The human prostate cancer cell line DU145 was used. The cells were cultured in RPMI 1640 medium supplemented with 10% FBS and 1% penicillin-streptomycin. All cells were incubated at 37° C. in a humidified atmosphere of […] and 5% CO2.
WST-1 proliferation assay was performed to study the effects of the test items on the proliferation and viability of cultured prostate cancer cells. DU145 cells were cultured in 96-well plates at the density of 2 000 cells/well in 200 μl of medium. Cells were allowed to set for 24 h and 48 h. The cells were treated with 0.5, 1.0, 2.5, 5.0, 10, and 50 μM of the specific substance for 24 h and 48 h. Samples were made in triplicate. 20 μl WST-1 solution (Roche Applied Science, Mannheim, Germany) was added per well and incubated at 37° C. for 4 h. The absorbance of each well was measured using a scanning multiwell spectrophotometer, ELISA reader at a wavelength of 450 nm and reference wavelength of 690 nm. The results are presented as percent of untreated control cells or the absorbance value.
(In general: Tetrazolium assays rely on reduction of a dye to a coloured formazan, in cell work by metabolically active cells.)

For experiment [2], the system named is DU145. The description is as above. It counts as cell-based, human. The following applies: 25.0 μM.
Experiment [3] relates to STAT-3 transcription factor. Briefly: STAT3 inhibition, luciferase reporter (4xM67 pTATA TK-Luc) in HeLa cells stimulated with γ-Interferon. It counts as cell-based. The note with it: Homo sapiens, γ-Interferon 8 h, luciferase activity, read-out: Anti STAT3 IC50. Here is the method:
HeLa cells (4×10^4/ml) were transiently transfected with a luciferase reporter plasmid (4×M67 pTATA TK-Luc) driven by artificial promoter containing 4 repeated M67 binding sites in tandem for the STAT-3 transcription factor. The transfections were performed for 24 h using Roti-Fect reagent (Carl Roth, Karlsruhe, Germany) according to the manufacturer's recommendations. After incubation with different concentrations of the extracts for 30 min the transfected cells were stimulated for 8 h with γ-Interferon. Then, the cells were lysed in 25 mM Tris-phosphate pH 7.8, 8 mM MgCl2, 1 mM DTT, 1% Triton X-100, and 7% glycerol. Luciferase activity was measured as described for 5.1 cells.
γ-Interferon induces an average of 5-6 fold induction of the luciferase activity compared to non stimulated cells and this represent the index of transactivation that is represented in our experiment as the maximum levels of γ-Interferon-induced STAT-3 activation (100%). Results below represent the IC50 for each compound in this assay. The IC50 means the concentration of each compound that reduces luciferase activity by 50% and it was calculated by GraphPad software.
A general note: A reporter such as luciferase makes a cellular process visible.

For a further experiment, the system named is LNCaP-IL6 cells. Briefly: WST-1 proliferation assay, LNCaP-IL6 cells. It counts as cell-based, human. Here is the method:
(§1) The human prostate cancer cell lines DU145, LNCaP (from the American Type culture Collection, ATCC) and long-term interleukin-6 (IL-6) stimulated LNCaP cells (LNCaP-IL6 cells) (Hobisch, Ramoner et al. 2001) were used. The cells were cultured in RPMI 1640 medium supplemented with 10% FBS and 1% penicillin-streptomycin. All cells were incubated at 37° C. in a humidified atmosphere of […] and 5% CO2.
(§2) WST-1 proliferation assay was performed to study the effects of the test items on the proliferation and viability of cultured prostate cancer cells. LNCaP and DU145 cells were cultured in 96-well plates at the density of 2 000 cells/well in 200 μl of medium. Cells were allowed to set for 24 h. The cells were treated with 0, 2.5, 5 or 10 μM of the specific substance for 24 h and 48 h. Samples were made in triplicate. 20 μl WST-1 solution (Roche Applied Science, Mannheim, Germany) was added per well and incubated at 37° C. for 4 h. The absorbance of each well was measured using a scanning multiwell spectrophotometer, ELISA reader at a wavelength of 450 nm and reference wavelength of 690 nm. The results are presented as percent of untreated control cells or the absorbance value.

The subject of experiment [4] is DU145. Briefly: WST-1 proliferation assay, DU145 cells (Example 16). The format is cell-based, human. Here is the method: as §1, §2

For the molecule `C[C@H]1C=C2C(=O)O[C@@H]3C[C@@H](c4ccccc4)[C@H](C1)[C@]23O` (stereo in doubt) [Example 4, 5,5a,6,7,7a,7b-hexahydro-7b-hydroxy-4-methyl-6-phenyl-indeno[1,7-bc]furan-2(4H)-one], the “Proliferation (vs control) Du145 (%) 24 h” value (“Proliferation … (%) 24 h” below) came to 125.24% in the experiment with DU145 [1] (0.5 μM); 76.74% in the experiment with DU145 [1] (1.0 μM); 86.48% in the experiment on DU145 [1] (2.5 μM); 91.39% in the experiment with DU145 [1] (5.0 μM); 45.29% with DU145 [1] (10.0 μM); 18.31% in the experiment with DU145 [1] (50.0 μM). In addition, the “Proliferation … (%) 24 h” value in the experiment with DU145 [2] turned out to be 22.17%. For the same molecule, the “Proliferation (vs control) Du145 (%) 48 h” value (“Proliferation … (%) 48 h” below) in the experiment with DU145 [1] (0.5 μM) was determined as 161.90%; with DU145 [1] (1.0 μM), 106.97%; in the experiment with DU145 [1] (2.5 μM), 106.23%; with DU145 [1] (5.0 μM), 73.13%; in the experiment on DU145 [1] (10.0 μM) it was 59.35%; in the experiment with DU145 [1] (50.0 μM) it was 11.34%. Besides, in the experiment on DU145 [2], the “Proliferation … (%) 48 h” value is 21.83%.
Turning to `C[C@H]1C=C2C(=O)O[C@@H]3CC[C@H](C1(C)C)[C@]23O` (stereo in doubt) [Example 5, 5,5a,6,7,7a,7b-hexahydro-7b-hydroxy-4,5,5-trimethyl-indeno[1,7-bc]furan-2(4H)-one], the “Proliferation … (%) 24 h” value in the experiment on DU145 [1] (0.5 μM) was determined as 105.62%; in the experiment with DU145 [1] (1.0 μM), 101.40%; with DU145 [1] (2.5 μM), 72.14%; in the experiment on DU145 [1] (5.0 μM) it was 54.75%; with DU145 [1] (10.0 μM), 39.62%; in the experiment with DU145 [1] (50.0 μM), 14.36%. Moreover, the “Proliferation … (%) 24 h” value in the experiment with DU145 [2] came out at 28.13%. The “Proliferation … (%) 48 h” value with DU145 [1] (0.5 μM) is reported as 98.92%; with DU145 [1] (1.0 μM), 93.59%; in the experiment with DU145 [1] (2.5 μM) it was 53.09%; in the experiment on DU145 [1] (5.0 μM), 35.53%; in the experiment with DU145 [1] (10.0 μM), 29.96%; in the experiment on DU145 [1] (50.0 μM), 8.51%. Besides, the “Proliferation … (%) 48 h” value in the experiment with DU145 [2] is 13.26%.
Broadly, the IC50 is the concentration at which inhibition is half-maximal. On to `COC(=O)C1=C[C@H](C)C[C@H]2C[C@H](c3ccccc3)[C@@H]3O[C@]123` (stereo in doubt) [Example 7, methyl 5-methyl-2-phenyl-1a,2,3,3a,4,5-hexahydroindeno[1,7a-b]oxirene-7-carboxylate], for which the IC50 in experiment [3] was 1830 nM. Further, the “% Proliferation (vs control) 24 h LNCaP-IL6” value with LNCaP-IL6 cells (2.5 uM) is reported as 81.79%; in the experiment with LNCaP-IL6 cells (5 uM), 81.21%; in the experiment on LNCaP-IL6 cells (10 uM), 70.45%. Besides, the “% Proliferation (vs control) 48 h LNCaP-IL6” value was 82.60% in the experiment with LNCaP-IL6 cells (2.5 uM), 85.26% in the experiment on LNCaP-IL6 cells (5 uM) and 71.27% in the experiment with LNCaP-IL6 cells (10 uM). The “% Proliferation (vs control) 24 h DU145” value in the experiment on DU145 [4] (2.5 uM) is on record as 90.64%; in the experiment with DU145 [4] (5 uM), 68.55%; with DU145 [4] (10 uM), 63.86%. Further, the results for the “% Proliferation (vs control) 48 h Du145” value in the experiment with DU145 [4] (2.5 uM), in the experiment with DU145 [4] (5 uM) and in the experiment on DU145 [4] (10 uM) were 95.09%, 75.05% and 76.58%, respectively.
With `COC(=O)C1=C[C@H](C)C[C@H]2C[C@@H](c3ccccc3)[C@@H]3O[C@]123` (stereo in doubt) [Example 8, methyl 5-methyl-2-phenyl-1a,2,3,3a,4,5-hexahydroindeno[1,7a-b]oxirene-7-carboxylate], the IC50 in experiment [3] amounted to 750 nM. For the same molecule, the figures for the “% Proliferation (vs control) 24 h LNCaP-IL6” value with LNCaP-IL6 cells (2.5 uM), with LNCaP-IL6 cells (5 uM) and in the experiment on LNCaP-IL6 cells (10 uM) were 69.23%, 58.97% and 52.67%, respectively. In addition, the “% Proliferation (vs control) 48 h LNCaP-IL6” value in the experiment on LNCaP-IL6 cells (2.5 uM) came out at 48.79%; in the experiment on LNCaP-IL6 cells (5 uM), 20.28%; with LNCaP-IL6 cells (10 uM) it was 18.81%. In addition, the “% Proliferation (vs control) 24 h DU145” value in the experiment with DU145 [4] (2.5 uM) was 80.94%; in the experiment with DU145 [4] (5 uM), 58.19%; with DU145 [4] (10 uM), 48.49%. Also, the “% Proliferation (vs control) 48 h Du145” value is given as 63.59% in the experiment on DU145 [4] (2.5 uM), 27.29% with DU145 [4] (5 uM) and 19.98% in the experiment with DU145 [4] (10 uM).
Take `COC(=O)C1=C[C@H](C)C[C@H]2C[C@@H](Cc3ccccc3)[C@@H]3O[C@]123` (stereo in doubt) [Example 9, methyl 2-benzyl-5-methyl-1a,2,3,3a,4,5-hexahydroindeno[1,7a-b]oxirene-7-carboxylate]: the IC50 in experiment [3] is 2010 nM. For the same molecule, the “% Proliferation (vs control) 24 h LNCaP-IL6” value with LNCaP-IL6 cells (2.5 uM) is 92.78%; with LNCaP-IL6 cells (5 uM) it was 90.02%; in the experiment with LNCaP-IL6 cells (10 uM), 96.73%. Moreover, the “% Proliferation (vs control) 48 h LNCaP-IL6” value is given as 104.12% in the experiment on LNCaP-IL6 cells (2.5 uM), 108.49% in the experiment with LNCaP-IL6 cells (5 uM) and 96.48% in the experiment with LNCaP-IL6 cells (10 uM). Besides, the “% Proliferation (vs control) 24 h DU145” value in the experiment on DU145 [4] (2.5 uM) is listed as 96.36%; with DU145 [4] (5 uM), 88.29%; with DU145 [4] (10 uM), 75.01%. Also, the “% Proliferation (vs control) 48 h Du145” value in the experiment with DU145 [4] (2.5 uM) worked out at 93.96%; with DU145 [4] (5 uM), 85.24%; with DU145 [4] (10 uM) it was 55.43%.
Turning to `COC(=O)C1=C[C@H](C)C[C@H]2C[C@H](Cc3ccccc3)[C@@H]3O[C@]123` (stereo in doubt) [Example 10, methyl 2-benzyl-5-methyl-1a,2,3,3a,4,5-hexahydroindeno[1,7a-b]oxirene-7-carboxylate], in experiment [3], the IC50 is 2980 nM. Also, the results for the “% Proliferation (vs control) 24 h LNCaP-IL6” value in the experiment on LNCaP-IL6 cells (2.5 uM), in the experiment on LNCaP-IL6 cells (5 uM) and in the experiment with LNCaP-IL6 cells (10 uM) were 81.18%, 92.69% and 76.05%, respectively. Besides, the “% Proliferation (vs control) 48 h LNCaP-IL6” value amounted to 74.81% in the experiment on LNCaP-IL6 cells (2.5 uM), 80.02% in the experiment with LNCaP-IL6 cells (5 uM) and 23.18% with LNCaP-IL6 cells (10 uM). The “% Proliferation (vs control) 24 h DU145” value in the experiment with DU145 [4] (2.5 uM) was determined as 86.82%; with DU145 [4] (5 uM), 98.85%; with DU145 [4] (10 uM), 66.76%. Moreover, the results for the “% Proliferation (vs control) 48 h Du145” value in the experiment on DU145 [4] (2.5 uM), in the experiment with DU145 [4] (5 uM) and in the experiment on DU145 [4] (10 uM) were 88.02%, 92.54% and 28.27%, respectively.
For `COC(=O)C1=C[C@H](C)C[C@H]2CC(C)(C)[C@@H]3O[C@]123` (stereo in doubt) [Example 11, methyl 2,2,5-trimethyl-1a,2,3,3a,4,5-hexahydroindeno[1,7a-b]oxirene-7-carboxylate], the IC50 in experiment [3] was determined as 2490 nM. Also, the “% Proliferation (vs control) 24 h LNCaP-IL6” value with LNCaP-IL6 cells (2.5 uM) was determined as 93.47%; in the experiment on LNCaP-IL6 cells (5 uM), 89.35%; in the experiment with LNCaP-IL6 cells (10 uM), 79.82%. Besides, the results for the “% Proliferation (vs control) 48 h LNCaP-IL6” value in the experiment on LNCaP-IL6 cells (2.5 uM), in the experiment with LNCaP-IL6 cells (5 uM) and in the experiment on LNCaP-IL6 cells (10 uM) were 78.36%, 71.85% and 31.62%, respectively. In addition, the “% Proliferation (vs control) 24 h DU145” value in the experiment on DU145 [4] (2.5 uM) is on record as 93.88%; in the experiment with DU145 [4] (5 uM), 80.42%; with DU145 [4] (10 uM) it was 72.14%. Further, the “% Proliferation (vs control) 48 h Du145” value with DU145 [4] (2.5 uM) amounted to 85.06%; in the experiment on DU145 [4] (5 uM), 67.77%; with DU145 [4] (10 uM) it was 45.51%.

The record behind these values is US9150531B2, “Tricyclic lactones for treatment of cancer” (Glactone Pharma Development AB, priority 2010, dated 2015).
